# Laboratory results published in PubChem BioAssay (NCI).
#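 Grown in 96-well plates, cells were treated for 48 hours with each compound at five concentrations. Insufficient inhibition: endpoint recorded as highest concentration tested. TGI denotes the concentration required for complete inhibition of growth.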
# Experiments:
# Assay in all cases: growth of human tumour cells (NCI), 48 h
# 786-0 renal = tested on: 786-0 renal
# A549 NSCLC = tested on: A549 NSCLC
# ACHN renal = tested on: ACHN renal
# BT-549 breast = tested on: BT-549 breast
# CAKI-1 renal = tested on: CAKI-1 renal
# CCRF-CEM leukemia = tested on: CCRF-CEM leukemia
# COLO 205 colon = tested on: COLO 205 colon
# DU-145 prostate = tested on: DU-145 prostate
# EKVX NSCLC = tested on: EKVX NSCLC
# HCT-116 colon = tested on: HCT-116 colon
# HCT-15 colon = tested on: HCT-15 colon
# HL-60(TB) leukemia = tested on: HL-60(TB) leukemia
# HOP-62 NSCLC = tested on: HOP-62 NSCLC
# HOP-92 NSCLC = tested on: HOP-92 NSCLC
# HS 578T breast = tested on: HS 578T breast
# HT29 colon = tested on: HT29 colon
# IGROV1 ovarian = tested on: IGROV1 ovarian
# K-562 leukemia = tested on: K-562 leukemia
# KM12 colon = tested on: KM12 colon
# LOX IMVI melanoma = tested on: LOX IMVI melanoma
# M14 melanoma = tested on: M14 melanoma
# MALME-3M melanoma = tested on: MALME-3M melanoma
# MCF7 breast = tested on: MCF7 breast
# MDA-MB-231 breast = tested on: MDA-MB-231 breast
# MDA-MB-435 = tested on: MDA-MB-435
# MDA-N = tested on: MDA-N
# MOLT-4 leukemia = tested on: MOLT-4 leukemia
# NCI-H226 lung = tested on: NCI-H226 lung
# NCI-H23 lung = tested on: NCI-H23 lung
# NCI-H460 lung = tested on: NCI-H460 lung
# NCI-H522 lung = tested on: NCI-H522 lung
# NCI/ADR-RES ovarian = tested on: NCI/ADR-RES ovarian
# OVCAR-3 ovarian = tested on: OVCAR-3 ovarian
# OVCAR-5 ovarian = tested on: OVCAR-5 ovarian
# OVCAR-8 ovarian = tested on: OVCAR-8 ovarian
# PC-3 prostate = tested on: PC-3 prostate
# RPMI-8226 leukemia = tested on: RPMI-8226 leukemia
# RXF 393 renal = tested on: RXF 393 renal
# SF-268 CNS = tested on: SF-268 CNS
# SF-295 CNS = tested on: SF-295 CNS
# SF-539 CNS = tested on: SF-539 CNS
# SK-MEL-2 melanoma = tested on: SK-MEL-2 melanoma
# SK-MEL-28 melanoma = tested on: SK-MEL-28 melanoma
# SK-MEL-5 melanoma = tested on: SK-MEL-5 melanoma
# SK-OV-3 ovarian = tested on: SK-OV-3 ovarian
# SN12C renal = tested on: SN12C renal
# SNB-19 CNS = tested on: SNB-19 CNS
# SNB-75 CNS = tested on: SNB-75 CNS
# SR leukemia = tested on: SR leukemia
# SW-620 colon = tested on: SW-620 colon
# T-47D breast = tested on: T-47D breast
# TK-10 renal = tested on: TK-10 renal
# U251 CNS = tested on: U251 CNS
# UACC-257 melanoma = tested on: UACC-257 melanoma
# UACC-62 melanoma = tested on: UACC-62 melanoma
# UO-31 renal = tested on: UO-31 renal
compound,measurement,setting,value
Oc1cccnc1[Se],TGI,786-0 renal,31.7 µM
same,TGI,A549 NSCLC,> 100 µM
same,TGI,ACHN renal,> 100 µM
same,TGI,BT-549 breast,> 100 µM
same,TGI,CAKI-1 renal,> 100 µM
same,TGI,CCRF-CEM leukemia,> 100 µM
same,TGI,COLO 205 colon,35 µM
same,TGI,DU-145 prostate,> 100 µM
same,TGI,EKVX NSCLC,80.2 µM
same,TGI,HCT-116 colon,> 100 µM
same,TGI,HCT-15 colon,> 100 µM
same,TGI,HL-60(TB) leukemia,> 100 µM
same,TGI,HOP-62 NSCLC,64.7 µM
same,TGI,HOP-92 NSCLC,> 100 µM
same,TGI,HS 578T breast,> 100 µM
same,TGI,HT29 colon,> 100 µM
same,TGI,IGROV1 ovarian,> 100 µM
same,TGI,K-562 leukemia,> 100 µM
same,TGI,KM12 colon,> 100 µM
same,TGI,LOX IMVI melanoma,> 100 µM
same,TGI,M14 melanoma,67.9 µM
same,TGI,MALME-3M melanoma,> 100 µM
same,TGI,MCF7 breast,> 100 µM
same,TGI,MDA-MB-231 breast,> 100 µM
same,TGI,MDA-MB-435,> 100 µM
same,TGI,MDA-N,> 100 µM
same,TGI,MOLT-4 leukemia,> 100 µM
same,TGI,NCI-H226 lung,> 100 µM
same,TGI,NCI-H23 lung,> 100 µM
same,TGI,NCI-H460 lung,> 100 µM
same,TGI,NCI-H522 lung,> 100 µM
same,TGI,NCI/ADR-RES ovarian,> 100 µM
same,TGI,OVCAR-3 ovarian,> 100 µM
same,TGI,OVCAR-5 ovarian,> 100 µM
same,TGI,OVCAR-8 ovarian,> 100 µM
same,TGI,PC-3 prostate,> 100 µM
same,TGI,RPMI-8226 leukemia,> 100 µM
same,TGI,RXF 393 renal,> 100 µM
same,TGI,SF-268 CNS,> 100 µM
same,TGI,SF-295 CNS,97.3 µM
same,TGI,SF-539 CNS,> 100 µM
same,TGI,SK-MEL-2 melanoma,> 100 µM
same,TGI,SK-MEL-28 melanoma,> 100 µM
same,TGI,SK-MEL-5 melanoma,> 100 µM
same,TGI,SK-OV-3 ovarian,> 100 µM
same,TGI,SN12C renal,> 100 µM
same,TGI,SNB-19 CNS,> 100 µM
same,TGI,SNB-75 CNS,> 100 µM
same,TGI,SR leukemia,> 100 µM
same,TGI,SW-620 colon,> 100 µM
same,TGI,T-47D breast,> 100 µM
same,TGI,TK-10 renal,> 100 µM
same,TGI,U251 CNS,> 100 µM
same,TGI,UACC-257 melanoma,> 100 µM
same,TGI,UACC-62 melanoma,> 100 µM
same,TGI,UO-31 renal,> 100 µM
